Source: patent US20230181553A1, “COMPOSITION FOR HAIR IMPROVEMENT” (Dr. Cherry Inc., priority 2020, published 2023)

Tests used:
hair cuticle = assay: Hair quality evaluation of hair cuticle by scanning electron microscope; format: in vivo, human
Source text: The hair of the group administered with PG (administered twice a month) of Example 3 was collected, and in consideration of the growing rate (15 mm/month) of the hair of the patient, a portion corresponding to a period 2 months to 3 months (about 2.5 months) before the treatment and a portion corresponding to a period 4 months to 5 months (about 4.5 months) after starting the treatment were collected to be hermetically stored respectively in Ziploc(R). Thereafter, hair of a test site was adhesively fixed on a fixing plate with a resin. The resultant was hermetically stored, and on test day, was subjected to carbon fixation, and a state of hair cuticle was observed by an ordinary method with a scanning electron microscope on the same day. As a negative control, hair of the same patient in a portion not treated (untreated in the half side treatment) was used. Then, a portion of the hair newly grown (on the root side) and an existing portion (on the tip side) were compared with each other. A representative example is illustrated in FIG. 2. The same evaluation was performed on a larger number of patients (three patients[…]) (15 mg of PG, administered twice a month, administration 12 times in total, 6 months). The evaluation was performed 20 days after the final administration based on an electron microscope image in accordance with the following rating. The evaluation was performed by 6 doctors. An average of ratings was obtained. 5: Cuticle is aligned, and is not rough at all. 4: Cuticle is aligned than average, but is slightly rough. 3: Cuticle is aligned averagely. 2: Cuticle is rough than average, and is slightly peeled. […] Cuticle is rough as a whole, and is peeled as a whole.

CD163 = assay: Gene expression in rat skin tissue after subcutaneous administration (qPCR); format: in vivo, Wistar Rat; conditions: rat back skin, 2.5, 0.1 or 0.02 µg/portion, tissue after 8 weeks, relative to no PG administration
Description: (§1) Next, change in gene expression in a tissue was checked. As a subject, 12 weeks old Wistar Rat (male) was used. Regarding a 2.5 µg/portion administration group, three regions were set on the back from the head to the tail, and each of these regions was divided into two regions on both left and right sides of the spine to set six regions on the back in total. In such an administration group, PG was administered to two portions around the center of each of the six regions. Specifically, in the 2.5 µg/portion administration group (n = 3), 2.5 µg (20 µL) of PG was administered per portion. Besides, regarding a 0.1 µg/portion administration group and a 0.02 µg/portion administration group, two regions were set from the head to the tail, and each of these regions was divided into two regions on both left and right sides of the spine, and thus, four regions in total were set on the back. In such an administration group, PG was administered to two portions around the center of each of the four regions. Specifically, in the 0.1 µg/portion administration group (n = 3), 0.1 µg (20 µL) of PG was administered per portion, and in the 0.02 µg/portion administration group (n = 2), 0.02 µg (20 µL) of PG was administered per portion. It is noted that a distance between the two portions was 1 cm. After 8 weeks, a tissue was collected with a 3 mm punch after shaving a portion on the center of the injected portion.
(§2) The collected tissue piece was frozen with liquid nitrogen, and stored at -80° C. […] For gene expression analysis by quantitative PCR, design and synthesis of a gene specific primer and a probe were entrusted to Integrated DNA Technologies, Inc. (Skokie, IL, USA), and an expression level of a target gene was analyzed with Prime Time Gene Expression Master Mix reagent (Integrated DNA Technologies, Inc., Skokie, IL, USA) and a Rotor-Gene Q PCR device (QIAGEN GmbH, Hilden, Germany). […]

CD34 = assay: as above; format: in vivo, Wistar Rat; conditions: rat back skin, 2.5, 0.1 or 0.02 µg/portion, tissue after 8 weeks, relative to no PG administration
Description: as §1, §2

CD68 = assay: as above; format: in vivo, Wistar Rat; conditions: rat back skin, 2.5, 0.1 or 0.02 µg/portion, tissue after 8 weeks, relative to no PG administration
Description: as §1, §2

PPARγ = tested on: PPARγ; parameters: species or system Wistar Rat; conditions: rat, in vivo
white hair = assay: Change in white hair (trichogram) after oral pioglitazone; format: in vivo, human; conditions: oral 15 mg once every day for 6 months
Description: As pioglitazone, a 15 mg pioglitazone tablet “NP” was used. Each patient took one tablet containing 15 mg of pioglitazone around 10 o'clock in the morning once every day. Subjects were four patients ([…]). In each of the patients, lines were extended from both outer canthi toward the head, two points on these lines crossing a line extended between the both ears through the vertex were tattooed with an India ink, and a portion around the marked center was photographed under the same conditions. The patient had no white hair in a specific portion at the start, a temporal portion on the line extending between the both ears was tattooed with an Indian ink, and a portion around the marked center was photographed under the same conditions. Pioglitazone was taken continuously for 6 months, and the same test was performed every two months. For trichogram, a portion around the marked center was photographed (Canon Powder Shot […], Tokyo, Japan), and hair within a circle having a diameter of 11 mm (area: 95 mm^2) around the tattooed portion set as a center in an imaging range was photographed in two directions, and the number was visually counted to obtain an average of the two photographs.

[1] = treated side relative to untreated side

In the case of `CCc1ccc(CCOc2ccc(CC3SC(=O)NC3=O)cc2)nc1` (stereo not drawn) [pioglitazone], the “hair quality rating, Root” value (hair cuticle; Treated Side, rating 1-5 (5: cuticle aligned, not rough at all), average of 6 doctors, three patients, 15 mg PG twice a month, 12 times, 20 days after final administration) is reported as 3.7, the “hair quality rating, Tip” value (hair cuticle; Treated Side, rating 1-5, average of 6 doctors, three patients, 15 mg PG twice a month, 12 times, 20 days after final administration) is reported as 2.6 and the “state of hair cuticle, newly grown portion (root side) vs tip side” value (hair cuticle; treated hair, PG twice a month, representative example FIG. 2) is reported as “the hair quality was obviously improved”. The “Degree of Improvement, Root” value (hair cuticle; [1]) was 1.12, the “Degree of Improvement, Tip” value (hair cuticle; [1]) was 1.0 and the “expression of CD163” value (CD163) was “found to simultaneously increase”. For the same molecule, the “expression of CD34” value (CD34) was “found to increase”, the “expression of CD68” value (CD68) was “found to simultaneously increase” and the “expression of PPARγ” value (PPARγ) was “found to increase”. For the same molecule, the “decrease in number of white hairs, number before administration assumed 100” value (white hair; n = 3) was 23.2%, the “decrease of white hair, average” value (white hair; n = 3) was 12.7 hairs/95 mm^2 and the “change in white hair in shaved portion” value (white hair; three patients having white hair before the treatment) was “the white hair was decreased”.
